Results published in patent publication US7951789B2 (priority 2006, dated 2011).
Several values for one entry are separate records, joined by “and”; a condition that tells them apart may be missing. Equal values may be shown once. Read-outs that look alike come from different tables or passages of the source.

Assays:
[1] = system: wild-type HBV (secreted virions); test: Anti-HBV activity in HBV virions via endogenous polymerase assay (EPA); format: cell-based; details: Hepatitis B virus, read-out: Virion EC50 (μM)
Procedure: (§1) Compounds were tested in an anti-HBV assay. Determination of anti-HBV activity in HBV virions and nucleocapsids via endoenous polymerase assays (EPA)
(§2) • 1. 12-well collagen-I coated plates were seeded with producer cells expressing wild-type HBV at a density of 0.5-1×10^6 cells per well in 2 ml growth/selection media. • 2. Drug stock solutions were made up freshly in 100% DMSO as 200× stocks. Five additional 4-fold dilutions were prepared from these 200× stock in 100% DMSO. For each experiment, 4 aliquots of each drug dilution series were stored at −20° C. until used. • 3. Once cells reached confluency (1 day after cells were seeded), drug treatment was initiated by adding 10 μl of drug dilution into 2 ml of fresh growth/selection media. […] The no-drug control wells received only 10 μl of DMSO in fresh media. • 4. Cells were treated every-other-day with 2 ml of fresh drug/medium for a total of 8 days. Cell lysates were then collected on day 10 and subjected to EPA analysis as described below. Preparation of Nucleocapsid-Containing Lysates for Epa Analysis • 1. Cells were grown for 3 to 4 days in 12-well collagen-I coated plates until confluent. • 2. Media was carefully aspirated and the cell monolayers were rinsed once with 1 ml of PBS. • 3. One ml of lysis buffer (50 mM Tris-HCl pH 7.5/150 mM NaCl/5 mM MgCl2/0.2% NP-40) was added to each well. Plates were stored on ice for 30 min to 4 h. • 4. Lysed cells were transferred to 1.5 ml-microfuge tubes. • 5. Lysates were clarified by spinning at 14,000 rpm for 5 min at room temperature. • 6. Clarified lysates were transferred to fresh tubes and immediately frozen on dry-ice, then stored at −80° C. until endogenous polymerase assays were performed as described below. Preparation of Secreted Virions from Supernatant for Epa Analysis • 1. Cells were grown for 3 to 4 days in 12-well collagen-I coated plates until confluent. • 2. Media was carefully aspirated and transferred to 1.5 ml-microfuge tubes. • 3. Supernatants were clarified by spinning at 14,000 rpm for 5 min at room temperature. • 4. Clarified supernatants were transferred to fresh tubes and immediately frozen on dry-ice, then stored at −80° C. until endogenous polymerase assays were performed essentially as described below. Endogenous Polymerase Assay (EPA) of Cell Lysates and Supernatants • 1. EPAs were performed essentially as described by Seifer et al (1998). Intracellular HBV nucleocapsids were immunoprecipitated from the cytoplasmic lysates overnight at 4° C. with a polyclonal rabbit anti-HBcAg antibody and immobilized on protein A sepharose CL-4B beads. Secreted virions were immunoprecipitated from clarified cell supernatants overnight at 4° C. with a monoclonal mouse anti-LS antibody (MA18/7) in the absence of detergent. • 2. Following 3 washes of the immobilized capsids or virions with 1 ml of EPA wash buffer (75 mM NH4Cl, 50 mM Tris-HCl pH 7.4, 1 mM EDTA), endogenous polymerase reactions were initiated by adding 50 μl of detergent-containing EPA cocktail (50 mM Tris-HCl pH7.4, 75 mM NH4Cl, 1 mM EDTA, 20 mM MgCl2, 0.1 mM β-ME, 0.5% NP-40, 100 μM cold dGTP, TTP, dCTP, and 50 nM ^33P-dATP) and incubated overnight at 37° C. The detergent is required to strip the outer envelope from immunoprecipitated virions as well as to enhance permeability of the nucleocapsids. • 3. Following digestion with 1 mg/ml of proteinase K for 1 h at 37° C., endogenously ^33P-labeled HBV DNA was liberated via phenol/chloroform extraction. • 4. The nucleic acids were precipitated with 1 volume of 5M NH4-acetate and 2.5 volumes of 100% EtOH, and then separated on a 1% native agarose gel in Tris-borate-EDTA buffer. • 5. Gels were blotted onto positively charged nylon membrane overnight at room temperature via capillary transfer in 0.4 N NaOH. • 6. Dried membranes were exposed to a Phosphorlmager screen (GE Healthcare) overnight at room temperature, then scanned (Storm 860, GE Healthcare) and quantitated with ImageQuant software (GE Healthcare). • 7. […]

[2] = system: wild-type HBV (intracellular nucleocapsids); test: Anti-HBV activity in HBV nucleocapsids (RI) via endogenous polymerase assay (EPA); format: cell-based; details: Hepatitis B virus
Procedure: as §1, §2

[3] = system: HBV wt (HepG2); test: Anti-HBV activity in HBV-infected HepG2 cells; format: cell-based; details: N=3
Procedure: The compound of Example 1 (NM 204) (Hydroxy-tBuSATE N-benzylphosphoramidate derivative of L-ddA) (A550) was contacted with HBV-infected HepG2 cells. EC50 values were measured according to standard techniques.

[4] = system: HCV genotype 1; test: Antiviral activity in chimpanzees chronically infected with HCV genotype 1; format: in vivo; details: HCV-infected chimpanzees, 10 mg/kg/day oral once daily, 4 days
Procedure: Methods: For pharmacokinetic (PK) and toxicology studies, B102 were orally administered to rats or monkeys at doses from 20 to 300 mg/kg/day up to 14 days. Hepatic nucleoside TP levels were determined by LC-MS/MS. Compounds (10 mg/kg/day) were administered once daily by oral gavage for 4 days in chimpanzees chronically infected with HCV genotype 1. HCV viral loads were monitored before, during and after treatment by quantitative RT-PCR.

[5] = In vivo studies in rat: distribution of A550 and LddATP in the liver; details: male rats
Procedure: Distribution of NM-204 (the compound of Example 1 (Hydroxy-tBuSATE N-benzylphosphoramidate derivative of L-ddA) (A550) in the rat liver was evaluated following a single intravenous (I.V.) or oral administration of A550 (NM-204) at a dose of 20 (oral) or 10 (I.V.) mg/Kg body weight. The dose solutions were prepared on the same day prior to dose administration.
At the specified time point (1 and 3 hours for IV animals or 1, 3 and 8 hours for oral animals), each animal was euthanized by CO2 gas followed by exsanguination via the abdominal vein. Livers were collected immediately after sacrifice, flash frozen in liquid nitrogen, placed on dry ice, and later stored at −70° C., before being analyzed.
Control rat liver samples were taken from whole frozen livers (Bioreclamation, Inc. Hicksville, N.Y.) with the aid of a tissue coring utensil (Harris Unicore, 8.0 mm, VWR,). Each ˜0.1 g sample was placed in individual 2 mL poly vials with 0.940 mL of 80% MeOH/20% DIH2O and homogenates were prepared using a mechanical tissue disruptor (Tissue Master, Omni-International, Inc, Marietta Ga.). The vials received a 10 μl aliquot of a working stock solution and a 50 μl aliquot of the ISTD before vortexing for ˜30 sec. The mixtures were stored overnight at −20° C. and the next day were removed for 10 min of centrifugation in a benchtop centrifuge. Each supernatant was transferred to individual centrifugation filtration units (0.45 μm) and the resulting filtrates were transferred to HPLC vials for the LC/MS/MS analysis. The final concentrations of ddATP in the calibration standards was 1000, 500, 250, 125, 50, and 0 pmol/ml. Each calibration standard was directly injected in a 50 μL volume onto the ion-exchange column for analysis. Standard curve analysis of calibration standards from control liver extracts was conducted.
Analysis of ddATP was done by an ion-exchange chromatography method with on-line positive ionization ESI-MS/MS detection in multiple reaction monitoring (MRM) detection mode. […] This is equivalent to a range of […] per gram liver by the sample preparation employed. The HPLC MS MS conditions described in Example 5 were utilized.

[6] = wild-type HBV producer cell line, intracellular nucleocapsids, EPA, read-out: RI EC50
[7] = IV dose 10 mg/kg, 1 hr, individual animals, 10 mg/kg
[8] = IV dose 10 mg/kg, 3 hrs, individual animals, 10 mg/kg
[9] = Oral dose 20 mg/kg, 1 hr, individual animals, 20 mg/kg
[10] = Oral dose 20 mg/kg, 3 hrs, individual animals, 20 mg/kg
[11] = Oral dose 20 mg/kg, 8 hrs, individual animals, 20 mg/kg

For `CC(C)NP(=O)(OCCSC(=O)C(C)(C)CO)OC[C@@H]1CC[C@H](n2cnc3c(N)ncnc32)O1` (some centres unmarked) [A348 (NM 48)], the EC50 [1] was < 1 µM.

In the case of `CC(C)NP(=O)(OCCSC(=O)C(C)(CO)CO)OC[C@H]1CC[C@@H](n2cnc3c(N)ncnc32)O1` (some centres unmarked) [A361 (NM 55)], the EC50 [1] is reported as > 10 µM and the EC50 [2, 6] is reported as 1 to 10 µM.

In the case of `CC(C)NP(=O)(OCCSC(=O)C(C)(CO)CO)OC[C@@H]1CC[C@H](n2cnc3c(N)ncnc32)O1` (some centres unmarked) [A362 (NM 77)], the EC50 [1] is reported as 1 to 10 µM and the EC50 [2, 6] is reported as 1 to 10 µM.

For `CC(C)(CO)C(=O)SCCOP(=O)(NCc1ccccc1)OC[C@H]1CC[C@@H](n2cnc3c(N)ncnc32)O1` (some centres unmarked) [A550 (NM 204)], the EC50 [1] was < 1 µM and the EC50 [2, 6] was < 1 µM.

Molecule `CC(C)N(C(C)C)P(=O)(OCCSC(=O)C(C)(C)CO)OC[C@@H]1CC[C@H](n2cnc3c(N)ncnc32)O1` (some centres unmarked) [A616 (NM 128)] has an EC50 ([2]; read-out: RI EC50 (μM)) of 1 to 10 µM.

`CC(C)(CO)C(=O)SCCOP(=O)(NCc1ccccc1)OC[C@@H]1CC[C@H](n2cnc3c(N)ncnc32)O1` (some centres unmarked) [C819 (NM 177)] gave an EC50 [1] of 1 to 10 µM and an EC50 [2, 6] of 1 to 10 µM.

`CC(C)(CO)C(=O)SCCOP(=O)(NCc1ccccc1)OC[C@H]1CC[C@@H](n2cnc3c(N)ncnc32)O1` (some centres unmarked) [Ex 1 (A550)] showed an EC50 ([3]; Hepatitis B virus) of 0.062 ± 0.018 µM.

In the case of `CC(C)NP(=O)(OCCSC(=O)C(C)(C)CO)OC[C@H]1CC[C@@H](n2cnc3c(N)ncnc32)O1` (some centres unmarked) [Example C791], the EC50 [1] is reported as 1 to 10 µM.

In the case of `Cc1cn([C@@H]2CC(O)[C@H](CO)O2)c(=O)[nH]c1=O` (stereo partly drawn) [L-dT, Telbivudine, reference compound], the EC50 [2, 6] is reported as < 1 µM.

With `Nc1ccn([C@@H]2CS[C@H](CO)O2)c(=O)n1` [Lamivudine, lamivudine] the EC50 ([3]; Hepatitis B virus) was 0.022 ± 0.007 µM.

In the case of `Nc1ncnc2c1ncn2[C@@H]1CC[C@H](CO)O1` [LddA, L-ddA], the EC50 [3] is reported as > 10 µM.

For `CC(C)[C@H](N)C(=O)O[C@@H]1[C@@H](CO)O[C@@H](n2ccc(N)nc2=O)[C@]1(C)O` [valopicitabine, reference compound], the “Mean viral load reduction” value [4] was 0.7 log 10.

With “Hydroxy-tBuSATE N-benzylphosphoramidate derivative of L-ddA [A550 (Ex 1)]” the “Concentration Compound (A550) (Ex 1) in liver” value (from here on “Concentration Compound (A550)”) ([5]; IV dose 10 mg/kg, 1 hr, Mean) was 80.0 pmol/g liver, the “Concentration Compound (A550)” value [5, 7] was 65.8 pmol/g liver and 89.1 pmol/g liver and 85.1 pmol/g liver and the “Concentration ddA-TP in liver” value [5, 7] was 2025 pmol/g liver and 1930 pmol/g liver and 1355 pmol/g liver. For the same molecule, the “Concentration ddA-TP in liver” value ([5]; IV dose 10 mg/kg, 1 hr, individual animals, hepatocellularity 114 × 10^6 cells per gram liver, 10 mg/kg) was 17.8 pmol/10^6 cells and 16.9 pmol/10^6 cells and 11.9 pmol/10^6 cells, the “Concentration Compound (A550)” value ([5]; IV dose 10 mg/kg, 3 hrs, Mean) was 27.9 pmol/g liver and the “Concentration Compound (A550)” value [5, 8] was 28.3 pmol/g liver and 26.0 pmol/g liver and 29.3 pmol/g liver. For the same molecule, the “Concentration ddA-TP in liver” value [5, 8] was 1345 pmol/g liver and 11.8 pmol/10^6 cells and 1940 pmol/g liver and 17.0 pmol/10^6 cells and 2990 pmol/g liver and 26.2 pmol/10^6 cells, the “Concentration Compound (A550)” value ([5]; Oral dose 20 mg/kg, 1 hr, Mean) was 251 pmol/g liver and the “Concentration Compound (A550)” value [5, 9] was 411 pmol/g liver and 272 pmol/g liver and 70.2 pmol/g liver. The “Concentration ddA-TP in liver” value [5, 9] was 210 pmol/g liver and 1.8 pmol/10^6 cells and 575 pmol/g liver and 5.0 pmol/10^6 cells and 400 pmol/g liver and 3.5 pmol/10^6 cells, the “Concentration Compound (A550)” value ([5]; Oral dose 20 mg/kg, 3 hrs, Mean) was 204 pmol/g liver and the “Concentration Compound (A550)” value [5, 10] was 360 pmol/g liver and 92.1 pmol/g liver and 161 pmol/g liver. The “Concentration ddA-TP in liver” value [5, 10] was 200 pmol/g liver and 1.8 pmol/10^6 cells and 330 pmol/g liver and 2.9 pmol/10^6 cells and 405 pmol/g liver and 3.6 pmol/10^6 cells, the “Concentration Compound (A550)” value ([5]; Oral dose 20 mg/kg, 8 hrs, Mean) was 20.1 pmol/g liver and the “Concentration Compound (A550)” value [5, 11] was 16.4 pmol/g liver and 28 pmol/g liver and 16.2 pmol/g liver. For the same molecule, the “Concentration ddA-TP in liver” value [5, 11] was 280 pmol/g liver and 2.5 pmol/10^6 cells and 805 pmol/g liver and 5.2 pmol/10^6 cells and 275 pmol/g liver and 2.4 pmol/10^6 cells.
